The term IC50 denotes the concentration that inhibits the measured activity by half. One may read the inhibition as the relative decrease from the control value, in per cent.

In experiment [1] the test system is A549. The experiment in a line: Antiproliferative activity against human A549 cells assessed as reduction in cell growth by CCK8 assay. In kind it is functional, cell-based. (Formazan colour is commonly taken as a measure of viable cells.)
In experiment [2] the test system is A549. The experiment in a line: Antiproliferative activity against human A549 cells assessed as reduction in cell growth at 30 uM by CCK8 assay relative to control. Type of experiment: functional.
Experiment [3] deals with NCI-H460. The experiment in a line: Antiproliferative activity against human NCI-H460 cells assessed as reduction in cell growth at 30 uM by CCK8 assay relative to control. In kind it is functional.
Experiment [4] deals with NCI-H460. In words: Antiproliferative activity against human NCI-H460 cells assessed as reduction in cell growth by CCK8 assay. Type of experiment: functional, cell-based.

`C[C@H](CCCOC(=O)Cn1cc(-c2ccsc2)nn1)[C@H]1CC[C@@]2(C)[C@@H]3CC=C4[C@@H](CC[C@H](O)C4(C)C)[C@]3(C)[C@H](O)C[C@]12C`: the IC50 in the experiment with A549 [1] amounted to 26.1 µM. Further, the inhibition at 30 µM in the experiment with A549 [2] came out at 90.5%; with NCI-H460 [3], 8.3%.
Regarding `C[C@H](Cc1cnc2ccccc2c1)[C@H]1CC[C@@]2(C)[C@@H]3CC=C4[C@@H](CC[C@H](O)C4(C)C)[C@]3(C)[C@H](O)C[C@]12C`, the IC50 in the experiment on A549 [1] is 19.2 µM; in the experiment with NCI-H460 [4], 24.6 µM. For the same compound, the inhibition at 30 µM in the experiment with A549 [2] stood at 91.5%; with NCI-H460 [3], 69.9%.
On to `C[C@H](Cc1cnc2ccc(Cl)cc2c1)[C@H]1CC[C@@]2(C)[C@@H]3CC=C4[C@@H](CC[C@H](O)C4(C)C)[C@]3(C)[C@H](O)C[C@]12C`, for which the values for the inhibition at 30 µM in the experiment with A549 [2] and in the experiment on NCI-H460 [3] were 10.6% and -12.6%, respectively.
Regarding `C[C@H](CC[C@@H](O)C(C)(C)O)[C@H]1CC[C@@]2(C)[C@@H]3CC=C4[C@@H](Cc5cc6cc(Br)ccc6nc5C4(C)C)[C@]3(C)C(=O)C[C@]12C`, the IC50 in the experiment with A549 [1] turned out to be 13.1 µM. The inhibition at 30 µM in the experiment with A549 [2] turned out to be 69.4%; in the experiment on NCI-H460 [3], 17%.
With `Cc1ccc(-c2cn(CC(=O)O[C@@H]3C[C@]4(C)[C@@H]([C@H](C)CC[C@@H](O)C(C)(C)O)CC[C@@]4(C)[C@@H]4CC=C5[C@@H](CC[C@H](O)C5(C)C)[C@@]43C)nn2)cc1`, in the experiment on A549 [1], the IC50 was 5.96 µM. Besides, the inhibition at 30 µM amounted to 77.3% in the experiment with A549 [2] and 40% in the experiment on NCI-H460 [3].
`C[C@H](Cc1cnc2cnccc2c1)[C@H]1CC[C@@]2(C)[C@@H]3CC=C4[C@@H](CC[C@H](O)C4(C)C)[C@]3(C)[C@H](O)C[C@]12C`: in the experiment with A549 [1], the IC50 turned out to be 18.2 µM. Besides, the inhibition at 30 µM was found to be 90.2% in the experiment on A549 [2] and 25.8% in the experiment with NCI-H460 [3].
Regarding `C[C@H](CC[C@@H](O)C(C)(C)O)[C@H]1CC[C@@]2(C)[C@@H]3CC=C4[C@@H](CC[C@H](O)C4(C)C)[C@]3(C)[C@H](OC(=O)Cn3cc(-c4ccccc4)nn3)C[C@]12C`, the IC50 in the experiment with A549 [1] worked out at 6.75 µM. Moreover, the values for the inhibition at 30 µM with A549 [2] and in the experiment on NCI-H460 [3] were 83% and 44.9%, respectively.
On to `C[C@H](Cc1cnc2cc(Br)ccc2c1)[C@H]1CC[C@@]2(C)[C@@H]3CC=C4[C@@H](CC[C@H](O)C4(C)C)[C@]3(C)[C@H](O)C[C@]12C`, for which the inhibition at 30 µM in the experiment with A549 [2] stood at 42.7%; in the experiment on NCI-H460 [3] it was 0.71%.
On to `C[C@H](CC[C@@H](O)C(C)(C)O)[C@H]1CC[C@@]2(C)[C@@H]3CC=C4[C@@H](Cc5cc6cc(Cl)ccc6nc5C4(C)C)[C@]3(C)C(=O)C[C@]12C`, for which the IC50 in the experiment on A549 [1] was 12.9 µM. The values for the inhibition at 30 µM in the experiment with A549 [2] and with NCI-H460 [3] were 84.1% and 13.1%, respectively.
Taken in the same sequence, the figures for `C[C@H](CCCOC(=O)Cn1cc(-c2ccccc2)nn1)[C@H]1CC[C@@]2(C)[C@@H]3CC=C4[C@@H](CC[C@H](O)C4(C)C)[C@]3(C)[C@H](O)C[C@]12C` were 22.5 µM, 87.9% and 7.56%.
Regarding `C[C@H](CC[C@@H](O)C(C)(C)O)[C@H]1CC[C@@]2(C)[C@@H]3CC=C4[C@@H](CC[C@H](O)C4(C)C)[C@]3(C)[C@H](OC(=O)Cn3cc(C4CC4)nn3)C[C@]12C`, the IC50 in the experiment on A549 [1] was determined as 19.8 µM. Also, the inhibition at 30 µM in the experiment on A549 [2] came to 92.9%; in the experiment on NCI-H460 [3], 34.7%.
Taken in the same sequence, the figures for `C[C@H](CCCOC(=O)Cn1cc(C2CC2)nn1)[C@H]1CC[C@@]2(C)[C@@H]3CC=C4[C@@H](CC[C@H](O)C4(C)C)[C@]3(C)[C@H](O)C[C@]12C` were 17.7 µM, 89.2% and 6.43%.
On to `C[C@H](Cc1cnc2ccc(Br)cc2c1)[C@H]1CC[C@@]2(C)[C@@H]3CC=C4[C@@H](CC[C@H](O)C4(C)C)[C@]3(C)[C@H](O)C[C@]12C`, for which the inhibition at 30 µM in the experiment on A549 [2] is 53.3%; in the experiment on NCI-H460 [3] it was -12.4%.
Regarding `C[C@H](CC[C@@H](O)C(C)(C)O)[C@H]1CC[C@@]2(C)[C@@H]3CC=C4[C@@H](CC[C@H](O)C4(C)C)[C@]3(C)[C@H](OC(=O)Cn3cc(-c4ccsc4)nn3)C[C@]12C`, the IC50 in the experiment with A549 [1] stood at 6.27 µM. Moreover, the inhibition at 30 µM with A549 [2] amounted to 90.5%; with NCI-H460 [3], 44.9%.
For the compound `C[C@H](Cc1cnc2cc(Cl)ccc2c1)[C@H]1CC[C@@]2(C)[C@@H]3CC=C4[C@@H](CC[C@H](O)C4(C)C)[C@]3(C)[C@H](O)C[C@]12C`, the inhibition at 30 µM in the experiment with A549 [2] is 17.4%; in the experiment on NCI-H460 [3], -1.18%.
Consider `C[C@H](CC[C@@H](O)C(C)(C)O)[C@H]1CC[C@@]2(C)[C@@H]3CC=C4[C@@H](Cc5cc6ccc(Br)cc6nc5C4(C)C)[C@]3(C)C(=O)C[C@]12C`, for which the results for the inhibition at 30 µM with A549 [2] and with NCI-H460 [3] were 22% and 1.65%, respectively.
Consider `C[C@H](CC[C@@H](O)C(C)(C)O)[C@H]1CC[C@@]2(C)[C@@H]3CC=C4[C@@H](CC[C@H](O)C4(C)C)[C@]3(C)[C@H](O)C[C@]12C` [MOGROL], for which the half-inhibitory concentration (IC50) in the experiment with A549 [1] was 27.8 µM; with NCI-H460 [4], more than 100 µM. Further, the inhibition at 30 µM was 62.9% in the experiment on A549 [2] and -13.2% with NCI-H460 [3].
As to `C[C@H](CC[C@@H](O)C(C)(C)O)[C@H]1CC[C@@]2(C)[C@@H]3CC=C4[C@@H](Cc5cc6ccncc6nc5C4(C)C)[C@]3(C)C(=O)C[C@]12C`, the figures for the IC50 in the experiment on A549 [1] and in the experiment with NCI-H460 [4] were 14.3 µM and 18.3 µM, respectively. Moreover, the inhibition at 30 µM turned out to be 95.2% with A549 [2] and 81.1% in the experiment with NCI-H460 [3].
Turning to `O=c1[nH]cc(F)c(=O)[nH]1` [FLUOROURACIL], the figures for the IC50 with A549 [1] and with NCI-H460 [4] were 1.65 µM and 7.03 µM, respectively.
For the compound `Cc1ccc(-c2cn(CC(=O)OCCC[C@@H](C)[C@H]3CC[C@@]4(C)[C@@H]5CC=C6[C@@H](CC[C@H](O)C6(C)C)[C@]5(C)[C@H](O)C[C@]34C)nn2)cc1`, the half-inhibitory concentration (IC50) with A549 [1] amounted to 23.8 µM. Further, the inhibition at 30 µM in the experiment on A549 [2] was 88.4%; in the experiment with NCI-H460 [3], 10.9%.
Regarding `C[C@H](CC[C@@H](O)C(C)(C)O)[C@H]1CC[C@@]2(C)[C@@H]3CC=C4[C@@H](Cc5cc6ccc(Cl)cc6nc5C4(C)C)[C@]3(C)C(=O)C[C@]12C`, the figures for the inhibition at 30 µM with A549 [2] and in the experiment on NCI-H460 [3] were 6.68% and 2.18%, respectively.
As for `C[C@H](CC[C@@H](O)C(C)(C)O)[C@H]1CC[C@@]2(C)[C@@H]3CC=C4[C@@H](Cc5cc6ccccc6nc5C4(C)C)[C@]3(C)C(=O)C[C@]12C`, the figures for the IC50 in the experiment with A549 [1] and in the experiment on NCI-H460 [4] were 13.8 µM and 17.1 µM, respectively. In addition, the inhibition at 30 µM in the experiment with A549 [2] was 94.3%; in the experiment with NCI-H460 [3], 80.2%.
On to `C[C@H](CC[C@@H](O)C(C)(C)O)[C@H]1CC[C@@]2(C)[C@@H]3CC=C4[C@@H](CC[C@H](O)C4(C)C)[C@]3(C)[C@H](OC(=O)Cn3cc(-c4ccc(C#N)cc4)nn3)C[C@]12C`, for which the IC50 in the experiment with A549 [1] is 5.79 µM. In addition, the results for the inhibition at 30 µM with A549 [2] and with NCI-H460 [3] were 76.7% and 20.5%, respectively.

The values are drawn from ChEMBL document CHEMBL4819125, “Synthesis and anti-proliferation activity of mogrol derivatives bearing quinoline and triazole moieties” (Bioorg Med Chem Lett, 2021).
